Data as given in patent US11395492B2, “Antimicrobial and agrochemical compositions” (Myco Sciences Limited, priority 2015, dated 2022).
Where two headings read alike, the source gives them in different places.

Columns and labels:
Rhizoctonia solani [1] = system: Rhizoctonia solani
Procedure: To assess the effects of composition on fungal growth, 10 microliters of the test compositions diluted in sterile distilled water were placed in the wells of a 12-well tissue culture plate and 1 milliliter of PDA was added by pipette to each well. The plate was agitated to distribute the test composition evenly throughout the agar (distilled water alone was used as control) and then the agar was allowed to set. Plugs of agar containing fungal hyphae (3×3 millimeters) from an established fungal culture were cut out using a scalpel and inserted into holes cut into the centre of the agar in each well of the 12-well plate, which was then cultured at room temperature (22° C.). To assess the effects of compositions on radial fungal growth, the diameter the fungal hyphae was measured twice at a 90° angle using a ruler and the average diameter in millimeters was calculated. If no fungal growth could be detected by eye, the cultures were observed by phase microscopy (40×) to confirm that there was no growth (NG) as judged by visual examination.
To assess the effects of compounds and compositions on sclerotia formation, the R. solani cultures were examined daily and radial fungal growth was measured until the cultures were confluent after which time the development of white (immature) sclerotia and mature (black pigmented) sclerotia was noted and the number of mature sclerotia was counted on day 10 of culture.

spores of B. cinerea = assay: Sporicidal assay (1) with sodium nitrite, B. cinerea; assay type: cell-based, Botrytis cinerea; settings: 30 min
Rhizoctonia solani [2] = assay: Inhibition of fungal growth assay (radial growth on PDA); settings: for IC50 (% of stock solution) on growth of R. solani: potato dextrose agar, 24 hour culture at 22° C.
Procedure: Inhibition of fungal growth assay. The Rhizoctonia solani (R. solani) strain was isolated from sclerotia on the skin of a potato and was maintained in culture on potato dextrose agar (PDA) at room temperature (22° C.). To assess the effects of the compositions on fungal growth, 10 microliters of the test compositions diluted in sterile distilled water was placed in the wells of a 12-well tissue culture plate and 1 milliliter of PDA was added by pipette to each well. The plate was agitated to distribute the test composition evenly throughout the agar (distilled water alone was used as control) and then the agar was allowed to set. Plugs of agar containing fungal hyphae (3×3 millimeters) from an established fungal culture were cut out using a scalpel and inserted into holes cut into the centre of the agar in each well of the 12-well plate, which was then cultured at room temperature. To assess the effects of compositions on radial fungal growth, the diameter of the fungal hyphae was measured twice at a 90° angle using a ruler and the average diameter in millimeters was calculated. Concentrations of compositions required to inhibit the radial growth of R. solani by 50% (IC50) were determined graphically.

spores of F. oxysporum = assay: Sporicidal assay (1) with sodium nitrite, F. oxysporum; assay type: cell-based, Fusarium oxysporum f. sp. cubense; settings: 30 min
[3] = pH of diluted compositions and components; assay type: physicochemical
Magnaporthe oryzae = assay type: cell-based; settings: for M. oryzae fungal growth (mm): 30 min exposure, 4 days culture
[4] = FIG. 3, 2 to 3 replicate experiments

## O=C(O)CNCP(=O)(O)O [Glyphosate, 2-[(phosphonomethyl)amino] acetic acid]
Rhizoctonia solani [1]; 0.27 g/L (Table 11)
  Day 1 growth in mm: 20 mm
  Day black SCL 1st seen: 5
  Day growth confluent: 2
  Day white SCL 1st seen: 3
  No. black SCL on day 10: >20
Rhizoctonia solani [1]; 0.8 g/L (Table 11)
  Day 1 growth in mm: 14 mm
  Day black SCL 1st seen: 6
  Day growth confluent: 2
  Day white SCL 1st seen: 3
  No. black SCL on day 10: 8
Rhizoctonia solani [1]; 2.7 g/L (Table 11)
  Day 1 growth in mm: 8 mm
  Day black SCL 1st seen: 8
  Day growth confluent: 6
  Day white SCL 1st seen: 6
  No. black SCL on day 10: 4
Rhizoctonia solani [1]; 8 g/L (Table 11)
  Day 1 growth in mm: 6 mm
  No. black SCL on day 10: 0

## O=S(=O)([O-])[O-].[Zn+2] [ZnSO4, zinc sulfate]
Spores of B. cinerea; NaNO2 0 mM, test item 1%
  Fungal growth score, spores of B. cinerea: 2
Spores of B. cinerea; NaNO2 1 mM, test item 1%
  Fungal growth score, spores of B. cinerea: 2
Spores of B. cinerea; NaNO2 3 mM, test item 1%
  Fungal growth score, spores of B. cinerea: 2
Spores of B. cinerea; NaNO2 10 mM, test item 1%
  Fungal growth score, spores of B. cinerea: 2
Spores of B. cinerea; NaNO2 30 mM, test item 1%
  Fungal growth score, spores of B. cinerea: 2
Spores of B. cinerea; NaNO2 100 mM, test item 1%
  Fungal growth score, spores of B. cinerea: 1
Rhizoctonia solani [2]
  IC50 (% of stock solution) on growth of R. solani: 0.33 % of stock solution

## NCP(=O)(O)O [AMPA, aminomethyl phosphonic acid]
Rhizoctonia solani [1]; 0.1 g/L (Table 11)
  Day 1 growth in mm: 20 mm
  Day black SCL 1st seen: 5
  Day growth confluent: 2
  Day white SCL 1st seen: 3
  No. black SCL on day 10: >20
Rhizoctonia solani [1]; 0.3 g/L (Table 11)
  Day 1 growth in mm: 19 mm
  Day black SCL 1st seen: 8
  Day growth confluent: 2
  Day white SCL 1st seen: 3
  No. black SCL on day 10: >20
Rhizoctonia solani [1]; 1 g/L (Table 11)
  Day 1 growth in mm: 17 mm
  Day black SCL 1st seen: 9
  Day growth confluent: 2
  Day white SCL 1st seen: 5
  No. black SCL on day 10: 5

## O.O.O.O.O.O=S(=O)([O-])[O-].[Cu+2] [CuSO4, copper sulfate pentahydrate]
Spores of B. cinerea; NaNO2 0 mM, test item 1%
  Fungal growth score, spores of B. cinerea: 2
Spores of B. cinerea; NaNO2 1 mM, test item 1%
  Fungal growth score, spores of B. cinerea: 2
Spores of B. cinerea; NaNO2 3 mM, test item 1%
  Fungal growth score, spores of B. cinerea: 2
Spores of B. cinerea; NaNO2 10 mM, test item 1%
  Fungal growth score, spores of B. cinerea: 2
Spores of B. cinerea; NaNO2 30 mM, test item 1%
  Fungal growth score, spores of B. cinerea: 2
Spores of B. cinerea; NaNO2 100 mM, test item 1%
  Fungal growth score, spores of B. cinerea: 0
Rhizoctonia solani [2]
  IC50 (% of stock solution) on growth of R. solani: 0.39 % of stock solution
Spores of F. oxysporum; NaNO2 0 mM, test item 1%
  Fungal growth score, spores of F. oxysporum: 2
Spores of F. oxysporum; NaNO2 1 mM, test item 1%
  Fungal growth score, spores of F. oxysporum: 2
Spores of F. oxysporum; NaNO2 3 mM, test item 1%
  Fungal growth score, spores of F. oxysporum: 2
Spores of F. oxysporum; NaNO2 10 mM, test item 1%
  Fungal growth score, spores of F. oxysporum: 2
Spores of F. oxysporum; NaNO2 30 mM, test item 1%
  Fungal growth score, spores of F. oxysporum: 2

## O=[PH]([O-])O.[K+] [Potassium phosphite, potassium phosphite]
Rhizoctonia solani [1]; 10 mg/L (Table 9)
  Day 1 growth in mm: 19 mm
  Day black SCL 1st seen: 5
  Day growth confluent: 2
  Day white SCL 1st seen: 3
  No. black SCL on day 10: 9
Rhizoctonia solani [1]; 20 mg/L (Table 9)
  Day 1 growth in mm: 19 mm
  Day black SCL 1st seen: 7
  Day growth confluent: 2
  Day white SCL 1st seen: 4
  No. black SCL on day 10: 2
Rhizoctonia solani [1]; 40 mg/L (Table 9)
  Day 1 growth in mm: 19 mm
  Day growth confluent: 2
  No. black SCL on day 10: 0
Rhizoctonia solani [1]; 80 mg/L (Table 9)
  Day 1 growth in mm: 18 mm
  Day growth confluent: 2
  No. black SCL on day 10: 0
Rhizoctonia solani [1]; 160 mg/L (Table 9)
  Day 1 growth in mm: 15 mm
  Day growth confluent: 3
  No. black SCL on day 10: 0
Rhizoctonia solani [2]
  IC50 values with R. solani (fungal growth): ~400 mg/L

## [Cl-].[Cu+2].[Cu+2].[OH-].[OH-].[OH-] [CuOCl-TP, copper oxychloride]
Rhizoctonia solani [2]
  IC50 (% of stock solution) on growth of R. solani: 1.8 % of stock solution
[3]; 1% suspension in water
  pH of a 1% suspension in water: 6.2

## OP(O)O [Composition H3PO3, phosphorous acid]
Magnaporthe oryzae; NaNO2 0 mM, composition 1%
  M. oryzae fungal growth (mm): 21 mm
Magnaporthe oryzae; NaNO2 10 mM, composition 0.1%
  M. oryzae fungal growth (mm): 20 mm
Magnaporthe oryzae; NaNO2 10 mM, composition 0.3%
  percent of control (A, B, M) used to calculate Sf: 38%
  M. oryzae fungal growth (mm): 13 mm
Magnaporthe oryzae; NaNO2 10 mM, composition 1%
  percent of control (A, B, M) used to calculate Sf: 48%
  M. oryzae fungal growth (mm): 11 mm
Magnaporthe oryzae; absence of sodium nitrite, 1% of stock solution
  fungicidal activity to M. oryzae: not fungicidal
Spores of B. cinerea; NaNO2 0 mM, test item 0.1%
  Fungal growth score, spores of B. cinerea: 2
Spores of B. cinerea; NaNO2 0 mM, test item 0.3%
  Fungal growth score, spores of B. cinerea: 2
Spores of B. cinerea; NaNO2 0 mM, test item 1%
  Fungal growth score, spores of B. cinerea: 2
Spores of B. cinerea; NaNO2 1 mM, test item 0.1%
  Fungal growth score, spores of B. cinerea: 2
Spores of B. cinerea; NaNO2 1 mM, test item 0.3%
  Fungal growth score, spores of B. cinerea: 2
Spores of B. cinerea; NaNO2 1 mM, test item 1%
  Fungal growth score, spores of B. cinerea: 2
Spores of B. cinerea; NaNO2 3 mM, test item 0.1%
  Fungal growth score, spores of B. cinerea: 2
Spores of B. cinerea; NaNO2 3 mM, test item 0.3%
  Fungal growth score, spores of B. cinerea: 2
Spores of B. cinerea; NaNO2 3 mM, test item 1%
  Fungal growth score, spores of B. cinerea: 1
Spores of B. cinerea; NaNO2 10 mM, test item 0.1%
  Fungal growth score, spores of B. cinerea: 2
Spores of B. cinerea; NaNO2 10 mM, test item 0.3%
  Fungal growth score, spores of B. cinerea: 2
Spores of B. cinerea; NaNO2 10 mM, test item 1%
  Fungal growth score, spores of B. cinerea: 0
Spores of B. cinerea; NaNO2 30 mM, test item 0.1%
  Fungal growth score, spores of B. cinerea: 2
Spores of B. cinerea; NaNO2 30 mM, test item 0.3%
  Fungal growth score, spores of B. cinerea: 2
Spores of B. cinerea; NaNO2 30 mM, test item 1%
  Fungal growth score, spores of B. cinerea: 0
Spores of B. cinerea; NaNO2 100 mM, test item 0.1%
  Fungal growth score, spores of B. cinerea: 2
Spores of B. cinerea; NaNO2 100 mM, test item 0.3%
  Fungal growth score, spores of B. cinerea: 1
Spores of B. cinerea; NaNO2 100 mM, test item 1%
  Fungal growth score, spores of B. cinerea: 0
Rhizoctonia solani [1]; 10 mg/L (Table 9)
  Day 1 growth in mm: 18 mm
  Day black SCL 1st seen: 5
  Day growth confluent: 2
  Day white SCL 1st seen: 3
  No. black SCL on day 10: 17
Rhizoctonia solani [1]; 12 mg/L (Table 11)
  Day 1 growth in mm: 20 mm
  Day black SCL 1st seen: 6
  Day growth confluent: 2
  Day white SCL 1st seen: 3
  No. black SCL on day 10: >20
Rhizoctonia solani [1]; 12 mg/L, adjusted to equal amounts of PO3 group (Table 10)
  Day 1 growth in mm: 18 mm
Rhizoctonia solani [1]; 12 mg/L, equal PO3 (Table 10)
  Day black SCL 1st seen: 6
  Day growth confluent: 2
  Day white SCL 1st seen: 3
  No. black SCL on day 10: >20
Rhizoctonia solani [1]; 20 mg/L (Table 9)
  Day 1 growth in mm: 18 mm
  Day growth confluent: 2
  Day white SCL 1st seen: 4
  No. black SCL on day 10: 0
Rhizoctonia solani [1]; 40 mg/L (Table 9)
  Day 1 growth in mm: 16 mm
  Day growth confluent: 2
  No. black SCL on day 10: 0
Rhizoctonia solani [1]; 40 mg/L (Table 11)
  Day 1 growth in mm: 19 mm
  Day growth confluent: 2
  No. black SCL on day 10: 0
Rhizoctonia solani [1]; 40 mg/L, adjusted to equal amounts of PO3 group (Table 10)
  Day 1 growth in mm: 16 mm
Rhizoctonia solani [1]; 40 mg/L, equal PO3 (Table 10)
  Day growth confluent: 2
  No. black SCL on day 10: 0
Rhizoctonia solani [1]; 80 mg/L (Table 9)
  Day 1 growth in mm: 14 mm
  Day growth confluent: 3
  No. black SCL on day 10: 0
Rhizoctonia solani [1]; 120 mg/L (Table 11)
  Day 1 growth in mm: 14 mm
  Day growth confluent: 3
  No. black SCL on day 10: 0
Rhizoctonia solani [1]; 120 mg/L, adjusted to equal amounts of PO3 group (Table 10)
  Day 1 growth in mm: 10 mm
Rhizoctonia solani [1]; 120 mg/L, equal PO3 (Table 10)
  Day growth confluent: 4
  No. black SCL on day 10: 0
Rhizoctonia solani [1]; 160 mg/L (Table 9)
  Day 1 growth in mm: 11 mm
  Day growth confluent: 3
  No. black SCL on day 10: 0
Rhizoctonia solani [1]; 400 mg/L (Table 11)
  Day 1 growth in mm: 6 mm
  No. black SCL on day 10: 0
Rhizoctonia solani [1]; 400 mg/L, adjusted to equal amounts of PO3 group (Table 10)
  Day 1 growth in mm: 5 mm
Rhizoctonia solani [1]; 400 mg/L, equal PO3 (Table 10)
  No. black SCL on day 10: 0
Rhizoctonia solani [1]; [4]
  times more active than AMPA at inhibiting black sclerotia formation: around 30 times
  times more active than glyphosate at inhibiting black sclerotia formation: around 20 times
Rhizoctonia solani [2]
  IC50 values with R. solani (fungal growth): around 250 mg/L
  IC50 (% of stock solution) on growth of R. solani: 0.64^+ % of stock solution
Rhizoctonia solani [2]; listed as phosphorous acid
  IC50 (% of stock solution) on growth of R. solani: 0.64 % of stock solution
[3]; 1% in distilled water
  pH of a 1% solution in DW: 2.12
[3]; 1% in distilled water with 100 mM sodium nitrite
  pH: 1% in DW + 100 mM NaNO2: 4.22
Spores of F. oxysporum; NaNO2 0 mM, test item 0.3%
  Fungal growth score, spores of F. oxysporum: 2
Spores of F. oxysporum; NaNO2 1 mM, test item 0.03%
  Fungal growth score, spores of F. oxysporum: 2
Spores of F. oxysporum; NaNO2 1 mM, test item 0.1%
  Fungal growth score, spores of F. oxysporum: 2
Spores of F. oxysporum; NaNO2 1 mM, test item 0.3%
  Fungal growth score, spores of F. oxysporum: 2
Spores of F. oxysporum; NaNO2 3 mM, test item 0.03%
  Fungal growth score, spores of F. oxysporum: 2
Spores of F. oxysporum; NaNO2 3 mM, test item 0.1%
  Fungal growth score, spores of F. oxysporum: 2
Spores of F. oxysporum; NaNO2 3 mM, test item 0.3%
  Fungal growth score, spores of F. oxysporum: 1
Spores of F. oxysporum; NaNO2 10 mM, test item 0.03%
  Fungal growth score, spores of F. oxysporum: 2
Spores of F. oxysporum; NaNO2 10 mM, test item 0.1%
  Fungal growth score, spores of F. oxysporum: 2
Spores of F. oxysporum; NaNO2 10 mM, test item 0.3%
  Fungal growth score, spores of F. oxysporum: 0
Spores of F. oxysporum; NaNO2 30 mM, test item 0.03%
  Fungal growth score, spores of F. oxysporum: 2
Spores of F. oxysporum; NaNO2 30 mM, test item 0.1%
  Fungal growth score, spores of F. oxysporum: 1
Spores of F. oxysporum; NaNO2 30 mM, test item 0.3%
  Fungal growth score, spores of F. oxysporum: 0
